Results reported in patent EP0935964A1, “Pharmaceutical compositions containing NSAIDs and piperine” (PANACEA BIOTEC LIMITED, priority 1998, dated 1999).
Read-outs that look alike come from different tables or passages of the source.

Legend:
[1] = tested on: acetic acid induced writhing; settings: mice, n = 8, Nimesulide 10mg/kg
Method: Pharmacokinetic studies were also performed in rats. […] The study design for acetic acid induced writhing in mice was as follows : Table II

[2] = Plasma levels of Nimesulide in rats after oral administration of the compositions (Experiment I, HPLC); type: in vivo, albino rats
Method: The rats were housed 5 per cage with food and water provided ad libidum. On the day of experimentation the rats were randomised into ten batches of 5 rats each. Four groups were formed. […] Group II consisted of four batches of five rats each. […] Rats of batch I from Group II were sacrificed 60 minutes post treatment after Chloroform anaesthesia. […] Blood was collected from the rats from the ventricle into heparinised tubes. Group III consisted of one batch of 5 rats, which received only Piperine at a dose level of 1.0mg/kg body wt. […] Blood was collected from the rats from the ventricle into heparinised tubes. Group IV consisted of 4 batches of 5 rats each. […] Rats of batch 1 from Group IV were sacrificed 60 minutes post treatment after Chloroform anaesthesia. […] Blood was collected from the rats from the ventricle into heparinised tubes. The blood samples were centrifuged at 3700 rpm and the plasma separated. […] Extracted benzene was evaporated in a water bath at 95°C and reconstituted with 100 µl of mobile phase and 10 µl was injected into the HPLC. Waters HPLC fitted with C18 µ Bondapack was used along with Waters UV-Vis detector (254nm). […] Unpaired student T test was applied on the data. Level of significance was fixed at p < 0.05.

[3] = rats, oral, Nimesulide 10 mg/kg (with Piperine 10mg/kg in the combination), n = 5
Method: The single test point pharmacokinetic studies were performed in two groups of rats. […] Rats were sacrificed at 90 minutes. post treatment and blood samples were analysed by HPLC.

[4] = in vivo; cited from earlier work
[5] = tested on: plasma proteins; settings: cited from earlier work
[6] = cited from earlier work
[7] = cited from earlier work; remark: listed apart in the source
[8] = formulations containing Piperine compared with those which did not contain Piperine; cited from earlier work

## CS(=O)(=O)Nc1ccc([N+](=O)[O-])cc1Oc1ccccc1 [Nimesulide, N-(4-nitro, 2-phenoxyphenyl) methanesulfonamide]
[1]
  % PROTECTION: 54%
[2]; Nimesulide alone 1.8 mg/kg, 240 min post treatment
  Concentration of the drug in plasma: 4.6 ± 1.4 kg/mL
[2]; oral suspension, Nimesulide 1.8 mg/kg (with Piperine 1.0 mg/kg in the combination), 60 min. post treatment
  Plasma levels of Nimesulide: 5800 ± 1700 µg/mL
[2]; oral suspension, Nimesulide 1.8 mg/kg (with Piperine 1.0 mg/kg in the combination), 120 min. post treatment
  Plasma levels of Nimesulide: 7900 ± 2300 µg/mL
[2]; oral suspension, Nimesulide 1.8 mg/kg (with Piperine 1.0 mg/kg in the combination), 240 min. post treatment
  Plasma levels of Nimesulide: 4600 ± 1400 µg/mL
[2]; oral suspension, Nimesulide 1.8 mg/kg (with Piperine 1.0 mg/kg in the combination), 360 min. post treatment
  Plasma levels of Nimesulide: 2200 ± 1100 µg/mL
[3]
  Plasma concentration (90 min post treatment): 8818 µg/mL
[4]
  dose excreted unchanged in the urine: 1-3%
[5]
  bound to plasma proteins: 99%

## O=C(/C=C/C=C/c1ccc2c(c1)OCO2)N1CCCCC1 [Piperine, (E, E) 1-[5-(1,3-benzodioxyl-5-yl)-1-oxo-2,4-pentadenyl] piperidine]
[2]; only Piperine 1.0 mg/kg, no Nimesulide, column 120 min.
  Plasma levels of Nimesulide: Nil
[6]
  pKa: 12.22
[7]; in benzene, chloroform, ether, ethyl acetate, dichloromethane, alcohol, acetic acid
  solubility: soluble
[7]; in water, pet. ether
  solubility: insoluble

## NC(=O)c1cnccn1 [Pyrazinamide]
[8]
  mean increase in AUC: 36%

## NNC(=O)c1ccncc1 [Isoniazid]
[8]
  mean increase in AUC: 131%

## CO[C@H]1/C=C/O[C@@]2(C)Oc3c(C)c(O)c4c(O)c(c(/C=N/N5CCN(C)CC5)c(O)c4c3C2=O)NC(=O)/C(C)=C\C=C\[C@H](C)[C@H](O)[C@@H](C)[C@@H](O)[C@@H](C)[C@H](OC(C)=O)[C@@H]1C [Rifampicin]
[8]
  mean increase in AUC: 37.6%
